Measured values as given in publication PMC8861431, “Tissue Pharmacokinetic Properties and Bystander Potential of Hypoxia-Activated Prodrug CP-506 by Agent-Based Modelling” (Frontiers in Pharmacology, 2022).
Several values for one entry are separate records, joined by “and”; a condition that tells them apart may be missing. Equal entries are not always repeated. Where two headings read alike, the source gives them in different places.

Legend:
[1] = test system: PORko-G and POR-R spheroids / spheroid co-cultures; assay: Spheroid clonogenic survival assay (with spheroid ABM fit); assay type: cell-based, human; settings: for k d S: kill probability rate constant in spheroid cultures: fitted by spheroid ABM to clonogenic survival under anoxia, set to zero for the prodrug, same kd assumed for metabolites
Protocol: Spheroid cultures were established by seeding 3 x 10^3 cells with 100 µl medium into ultra-low attachment, round bottom 96-well plates (Corning Inc, Corning, NY). Plates were briefly centrifuged (200 g, 5 min) to facilitate cell aggregation and grown in a standard incubator (37°C, 21% O2, 5% CO2) for 4 days before experiments. The culture medium was then aspirated, and the established spheroids taken into a H2/Pd-catalyst anaerobic chamber. Spheroids were washed three times with anoxia pre-equilibrated medium and left to settle for 1 h in a humidified 37°C incubator. Spheroids were removed from the anaerobic chamber after a 4 h drug exposure and washed three times with fresh culture medium. The growth of representative spheroids was monitored for 10 days using a published method of image analysis for volume determination ([Mao et al., 2018]). The remainder were enzymatically dissociated and plated at serial dilutions in 6-well plates containing 2 µM puromycin or 1 mg/ml geneticin for positive selection of POR-R and PORko-G cells, respectively. Colonies were visualized after 10 days of drug-free proliferation by staining with methylene blue (2 g/L in 50% aqueous ethanol) for 30 min. The number of colonies with at least 50 cells was manually counted to determine the plating efficiency. The surviving fraction was determined as the ratio of the plating efficiency of treated cells to that of the controls.
The spheroid ABM is described in further detail elsewhere ([Hong et al., 2018b]; [Mao et al., 2018]). The model employs two 3D grids and two solvers, a coarse grid represents the culture medium and is embedded with a much finer grid that represents the spheroid in a small cubic region at the bottom of the well. The spheroid grows in a specified volume and depth of unstirred medium containing dissolved oxygen. The geometry of the model is lattice-based, in which cells occupy cubic sites on a regular 3D lattice and grow in volume at a rate dependent on the local oxygen concentration. Autonomous cell mobility and cell-cell forces are not simulated. Cell motion occurs only as a result of cell division. Cells divide when the volume reaches a pre-set value (Vdiv) and the resultant daughter cell occupies an adjacent empty lattice site. […] The oxygen concentration at the air-medium boundary is defined by the gas phase of the culture environment. […] When oxygen concentrations fall below a critical level (<0.15 µM), cells are tagged to die and cytolysis occurs after a further 24 h leading to the central necrosis observed in in vitro spheroids. Spheroid ABM simulations were performed on a desktop Windows PC (Intel core I7 processor) from a Qt (Qt Company, https://www.qt.io/) graphical user interface passing parameters to a DLL built with Fortran95. The solution of the coarser grid provides the boundary conditions for the solution of the intracellular and extracellular concentrations within the spheroid lattice. Oxygen and drug are transported by diffusion from the boundary into the spheroid interior through the intercellular space in parallel with their uptake into cells. The model allows specification of two mass transfer constants to characterise the uptake (Kin) and efflux (Kout) rates for each compound. Prodrug metabolism is restricted to the intracellular compartment and dependent on the local oxygen concentration. […]

[2] = test system: HCT-116 cells (PORko-G, HCT-116 WT, POR-R); assay: Cellular metabolism assay (LC-MS/MS of reduced metabolites); assay type: in vitro ADME, human; settings: for Metabolite concentration, fold lower in PORko-G cells than HCT-116 WT cells / Metabolite concentration, fold higher in POR-R cells than HCT-116 WT cells: after 1 h treatment with 100 µM CP-506, anoxic
Protocol: Aerobic and anoxic conditions were achieved as described above. Cells (5 x 10^5 per well) were seeded with 350 µl medium in duplicate into 24-well plates and left to attach for 2 h in a humidified 37°C incubator. A working solution of CP-506 was prepared in culture medium to achieve a 100 µM concentration in each well after the addition of a 500 µl volume. Plates were exposed to drug for 1 h in a humidified 37°C incubator. Metabolism was then halted by the addition of two-volumes of ice-cold acetonitrile containing 2 µM of internal standard for each analyte. Samples were stored at −80°C until LC-MS/MS analysis.
(§1) The LC system for tandem MS consisted of an Agilent 1200 autosampler (4°C) and binary pump, a 3.0 × 50 mm, 1.8-micron Zorbax SB-C18 column (Agilent; PN: 827975-302) and 2.1 × 7 mm guard column (Alltech, IL) maintained at 35°C, at a pressure of <400 bar and flow rate of 0.3 ml/min. The mobile phase comprised a gradient of 0.01% formic acid in 80% acetonitrile - 20% water, v/v (solvent A), and 0.01% formic acid in water (solvent B). Initial mobile phase composition was 20% solvent A and 80% solvent B, increasing to 60% A (0–3 min) then 80% A (3–5.45 min), returning to initial conditions (5.5–6 min). Post-run time was 1 min, and the total run time was […]. Mass spectrometric detection was carried out using an Agilent 6410 triple quadrupole mass spectrometer equipped with a multimode ionization (MMI) source. The mass spectrometer was operated in electrospray positive ionization mode using multiple reaction monitoring (MRM), with Q1 & Q3 set to unit resolution ([…]). The electrospray ionization parameters, optimized for the parent molecular ion ([M+H]+) abundance were: drying gas temperature 325°C, vaporiser temperature 150°C, drying gas flow 5 L/min, nebuliser pressure 50 psi, capillary voltage 1.8 kV, Delta EMV 300 V. Ultra-pure nitrogen was used as collision gas. The divert valve feature of the Agilent 6410 triple quadrupole mass spectrometer was utilised to prevent the eluate from entering the ionisation source chamber during the first 0.5 min of each run. For CP-506 samples, positively charged ions representing the [M+H]+ for CP-506 and CP-506-D8 were collisionally dissociated to form specific product ions which were monitored in MS2 (unit resolution). The MRM transition, ionization mode, collision energy, dwell time, fragmentor voltage and retention time for all compounds is provided in Supplementary Table S2. Agilent MassHunter software (v.4.04.00) was used for data acquisition and chromatographic peak integration.

[3] = Media stability studies (stirred medium without serum, 37°C); assay type: physicochemical
Protocol: The stability of each compound was determined in stirred medium (without serum) maintained under aerobic conditions by the constant supply of a humidified gas mixture comprised of 21% O2, 5% CO2 with balance N2. Vials were spiked with 100 µM of the relevant compound, and samples were collected using a positive displacement pipettor for up to 3 h thereafter. The collected samples were then treated with two-volumes of ice-cold acetonitrile containing 2 µM of the relevant deuterated (D8) internal standard and stored at −80°C until LC-MS/MS analysis.
as §1

[4] = 37°C, aerobic, medium without serum/cells, 100 µM, read-out: Half-life (T1/2) in stirred medium
[5] = buffer, Table 1, stirred culture medium at 37°C, read-out: Half-life: time required to reduce the concentration of drug to half of its initial value (converted)

Row | SMILES | k d S: kill probability rate constant in spheroid cultures [1] | Metabolite concentration, fold lower in PORko-G cells than HCT-116 WT cells [2] [fold] | half-life at 100 µM [3, 4] [min] | half-life at 100 µM [3, 5] [min] | Metabolite concentration, fold higher in POR-R cells than HCT-116 WT cells [2] [fold] | Metabolite production suppressed in POR knockout relative to the POR-overexpressing cell line ([2]; anoxic, Figure 3A) [fold] | Half-life (T1/2) in stirred medium ([3]; 37°C, aerobic, medium without serum/cells, 100 µM) [min] | Fold longer half-life than CP-506H or CP-506M ([3]; stirred medium, Figure 3B) [fold] | Differential in anoxic sensitivity between PORko-G and POR-R spheroids ([1]; clonogenic endpoint, 4 h exposure, anoxia) | Time without loss of mass balance in stirred medium ([3]; 37°C, aerobic, stirred medium)
1 | CCN1CCN(C(=O)c2cc(N(CCBr)CCOS(C)(=O)=O)c(S(C)(=O)=O)cc2N)CC1 [CP-506M, 2-((4-amino-5-(4-ethylpiperazine-1-carbonyl)-2-(methylsulfonyl)phenyl)(2-bromoethyl)amino)ethyl methanesulfonate] | 0.0256 | 4.1 | 7.6 | 7.8 |  |  |  |  |  | 
2 | CCN1CCN(C(=O)c2cc(N(CCCl)CCCl)c(S(C)(=O)=O)cc2N)CC1 [CP-506M-Cl2, (2-Amino-5-(bis(2-chloroethyl)amino)-4-(methylsulfonyl)phenyl)(4-ethylpiperazin-1-yl)methanone] | 0.0256 | 17.7 | 271 | 271 | 8.6 | 151 | 271 | ≥ 10 |  | 
3 | CCN1CCN(C(=O)c2cc(N(CCBr)CCOS(C)(=O)=O)c(S(C)(=O)=O)cc2[N+](=O)[O-])CC1 [CP-506, 2-[(2-bromoethyl)-5-[(4-ethyl-1-piperazinyl)carbonyl]-2-(methylsulfonyl)-4-nitroanilino]ethyl methanesulfonate] | 0 |  |  | 1800 |  |  |  |  | 22 fold and 20 fold | over 360 min
4 | CCN1CCN(C(=O)c2cc(N(CCBr)CCOS(C)(=O)=O)c(S(C)(=O)=O)cc2NO)CC1 [CP-506H, 2-((2-bromoethyl)(5-(4-ethylpiperazine-1-carbonyl)-4-(hydroxyamino)-2-(methylsulfonyl)phenyl)amino)ethyl methanesulfonate] | 0.0256 |  | 10.5 | 10.8 | 5.5 |  |  |  |  | 
